Source: patent EP4563146A1 (IRBM S.P.A., priority 2023, dated 2025)
Read-outs that look alike come from different tables or passages of the source.

Assays:
[1] = molecular target: T1, West Nile Virus (WNV) NS2B-NS3 protease (West Nile virus, UniProt Q9Q6P4); assay: WNV protease inhibition assay; type: biochemical; details: Table 4; letter codes for IC50
T1 construct: NS2B1423-1470); purchased R&D 2907-SE-020
From the text: WNV protease inhibition assay

ZIKV replicon = assay: ZIKV replication inhibition assay (NanoLuc replicon in Vero cells); details: 72 h
[2] = Zika virus, Vero, read-out: ZIKA Cell_Nanoluc, Vero cells with stable ZIKV replicon, 72 h, Nano-Glo readout
[3] = Zika virus, Vero, read-out: ZIKA Cell_Nanoluc
[4] = read-out: ZIKA Cell_Nanoluc, Vero cells with stable ZIKV replicon, Nano-Glo readout

T1 sequence (Q9Q6P4 1423-1470): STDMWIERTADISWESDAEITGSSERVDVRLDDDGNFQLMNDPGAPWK
T1 sequence (Q9Q6P4 1506-1689): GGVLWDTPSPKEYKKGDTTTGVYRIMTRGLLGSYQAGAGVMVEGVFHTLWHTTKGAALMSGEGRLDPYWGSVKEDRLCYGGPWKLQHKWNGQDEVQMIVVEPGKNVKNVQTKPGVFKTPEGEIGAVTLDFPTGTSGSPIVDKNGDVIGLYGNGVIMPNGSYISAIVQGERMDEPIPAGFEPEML

Compound | IC50 [1] [µM] | EC50 (ZIKV replicon; [2]) [µM] | EC50 (ZIKV replicon; [3]) [µM] | EC50 (ZIKV replicon; [4]) [µM]
CN1c2ccccc2CCC1C[n+]1cc([N-]C(=O)Nc2ccnc(C(F)(F)F)c2)on1 (racemic) [Example 178, rac-(3-((1-Methyl-1,2,3,4-tetrahydroquinolin-2-yl)methyl)-1,2,3-oxadiazol-3-ium-5-yl)((2-(trifluoromethyl)pyridin-4-yl)carbamoyl)amide] | 0.1 to 1 | 0.1 to 1 |  | 
Cc1ncnc(C)c1-c1ccc(C[n+]2cc([N-]C(=O)N[C@H]3CC[C@@]4(C3)CC4(F)F)on2)nc1 (racemic) [Example 180, rac-(((3R,5S)-1,1-Difluorospiro[2.4]heptan-5-yl)carbamoyl)(3-((5-(4,6-dimethylpyrimidin-5-yl)pyridin-2-yl)methyl)-1,2,3-oxadiazol-3-ium-5-yl)amide] | 1 to 20 | 1 to 20 |  | 
CN1CCc2ccccc2C1C[n+]1cc([N-]C(=O)Nc2ccnc(C(F)(F)F)c2)on1 (racemic) [Example 181, rac-(3-((2-Methyl-1,2,3,4-tetrahydroisoquinolin-1-yl)methyl)-1,2,3-oxadiazol-3-ium-5-yl)((2-(trifluoromethyl)pyridin-4-yl)carbamoyl)amide] | < 0.1 | 0.1 to 1 |  | 
CN1CCc2ccccc2C1C[n+]1cc([N-]C(=O)Nc2cc(NC(=O)Cc3ccccc3)cc(C(F)(F)F)c2)on1 (racemic) [Example 192, rac-(3-((2-Methyl-1,2,3,4-tetrahydroisoquinolin-1-yl)methyl)-1,2,3-oxadiazol-3-ium-5-yl)((3-(2-phenylacetamido)-5-(trifluoromethyl)phenyl)carbamoyl)amide] | 0.1 to 1 | 0.1 to 1 |  | 
O=C([N-]c1c[n+](CC2CCCc3ccccc32)no1)Nc1ccnc(C(F)(F)F)c1 (racemic) [Example 200, Rac-(3-((1,2,3,4-Tetrahydronaphthalen-1-yl)methyl)-1,2,3-oxadiazol-3-ium-5-yl)((2-(trifluoromethyl)pyridin-4-yl)carbamoyl)amide] | 0.1 to 1 | 0.1 to 1 |  | 
Cc1ccccc1CC(=O)Nc1cc(NC(=O)[N-]c2c[n+]([C@@H]3CCCC[C@@H]3N(C)C)no2)cc(C(F)(F)F)c1 (racemic) [Example 244, rac-(3-((1R,2S)-2-(Dimethylamino)cyclohexyl)-1,2,3-oxadiazol-3-ium-5-yl)((3-(2-(o-tolyl)acetamido)-5-(trifluoromethyl)phenyl)-carbamoyl)amide] | 0.1 to 1 | 1 to 20 |  | 
CNC(=O)[C@H]1CCC[C@@H]([n+]2cc([N-]C(=O)Nc3cc(NC(=O)Cc4ccccc4C)cc(C(F)(F)F)c3)on2)C1 (racemic) [Example 245, rac-(3-((1R,3S)-3-(Methylcarbamoyl)cyclohexyl)-1,2,3-oxadiazol-3-ium-5-yl)((3-(2-(o-tolyl)acetamido)-5-(trifluoromethyl)phenyl)carbamoyl)amide] | 0.1 to 1 | 1 to 20 |  | 
CNC(=O)[C@@H]1CCC[C@@H]([n+]2cc([N-]C(=O)Nc3cc(NC(=O)Cc4ccccc4C)cc(C(F)(F)F)c3)on2)C1 (racemic) [Example 252, rac-(3-((1R,3R)-3-(Methylcarbamoyl)-cyclohexyl)-1,2,3-oxadiazol-3-ium-5-yl)((3-(2-(o-tolyl)-acetamido)-5-(trifluoromethyl)phenyl)-carbamoyl)amide] | 0.1 to 1 | 1 to 20 |  | 
Cc1ccccc1CC(=O)Nc1cc(NC(=O)[N-]c2c[n+]([C@@H]3CCC[C@H](C(=O)N(C)C)C3)no2)cc(C(F)(F)F)c1 (racemic) [Example 253, rac-(3-((1R,3S)-3-(Dimethylcarbamoyl)-cyclohexyl)-1,2,3-oxadiazol-3-ium-5-yl)((3-(2-(o-tolyl)-acetamido)-5-(trifluoromethyl)phenyl)-carbamoyl)amide] | 0.1 to 1 | 1 to 20 |  | 
Cc1ncnc(C)c1-c1ccc(C[n+]2cc([N-]C(=O)N[C@@H]3CC[C@@H](C(F)(F)F)C3)on2)cc1 (racemic) [Example 256, (3-((4-(4,6-Dimethylpyrimidin-5-yl)phenyl)methyl)oxadiazol-3-ium-5-yl)-((rac-(1R,3R)-3-(trifluoromethyl)cyclopentyl)-carbamoyl)azanide] | 0.1 to 1 |  | 1 to 20 | 
CN(C)C[C@H]1CC[C@H]([n+]2cc([N-]C(=O)Nc3cc(NC(=O)[C@@H](F)c4ccccc4F)cc(C(F)(F)F)c3)on2)CC1 (single isomer, unassigned) [Example 243] | < 0.1 |  | 0.1 to 1 | 
CN(C)C[C@H]1CC[C@H]([n+]2cc([N-]C(=O)Nc3cc(NC(=O)[C@H](F)c4ccccc4F)cc(C(F)(F)F)c3)on2)CC1 (single isomer, unassigned) [Example 271] | < 0.1 |  | 0.1 to 1 | 
Cc1ccccc1CC(=O)Nc1cc(NC(=O)[N-]c2c[n+]([C@H]3CCC[C@@H](CN(C)C)C3)no2)cc(C(F)(F)F)c1 (stereo in doubt) [Example 246, rac-(3-((1S,3R)-3-((Dimethylamino)methyl)-cyclohexyl)-1,2,3-oxadiazol-3-ium-5-yl)((3-(2-(o-tolyl)acetamido)-5-(trifluoromethyl)phenyl)-carbamoyl)amide] | < 0.1 | 1 to 20 |  | 
Cc1ccccc1CC(=O)Nc1cc(NC(=O)[N-]c2c[n+]([C@@H]3CCC[C@H](CN(C)C)C3)no2)cc(C(F)(F)F)c1 (stereo in doubt) [Example 247, rac-(3-((1R,3S)-3-((Dimethylamino)methyl)-cyclohexyl)-1,2,3-oxadiazol-3-ium-5-yl)((3-(2-(o-tolyl)acetamido)-5-(trifluoromethyl)phenyl)-carbamoyl)amide] | 0.1 to 1 | 1 to 20 |  | 
COc1ncc(-c2ccc(C[n+]3cc([N-]C(=O)Nc4cc(NC(=O)Cc5ccccc5)cc(C(F)(F)F)c4)on3)cc2)c(C)n1 [Example 1, (3-(4-(2-Methoxy-4-methylpyrimidin-5-yl)benzyl)-1,2,3-oxadiazol-3-ium-5-yl)((3-(2-phenylacetamido)-5-(trifluoromethyl)phenyl)carbamoyl)amide] | 1 to 20 | 1 to 20 |  | 
CN(C)C[C@H]1CC[C@H]([n+]2cc([N-]C(=O)Nc3cc(N4CCC(c5ccccc5)C4=O)cc(C(F)(F)F)c3)on2)CC1 (stereo partly drawn) [Example 148, (3-((1R,4R)-4-((Dimethylamino)methyl)-cyclohexyl)-1,2,3-oxadiazol-3-ium-5-yl)((3-(2-oxo-3-phenylpyrrolidin-1-yl)-5-(trifluoromethyl)-phenyl)carbamoyl)amide] | 0.1 to 1 |  | 1 to 20 | 
CN(C)C[C@H]1CC[C@H]([n+]2cc([N-]C(=O)Nc3cc(NC(=O)CS(=O)(=O)c4ccccc4)cc(C(F)(F)F)c3)on2)CC1 [Example 151, (3-((1R,4R)-4-((Dimethylamino)methyl)-cyclohexyl)-1,2,3-oxadiazol-3-ium-5-yl)((3-(2-(phenylsulfonyl)acetamido)-5-(trifluoromethyl)phenyl)carbamoyl)amide] | 0.1 to 1 |  |  | 1 to 20
COc1ccccc1CC(=O)Nc1cc(NC(=O)[N-]c2c[n+](C3CCC(CN(C)C)CC3)no2)cc(C(F)(F)F)c1 [Example 153, (3-((1R,4R)-4-((Dimethylamino)methyl)-cyclohexyl)-1,2,3-oxadiazol-3-ium-5-yl)((3-(2-(2-methoxyphenyl)acetamido)-5-(trifluoromethyl)-phenyl)carbamoyl)amide] | 0.1 to 1 |  |  | 1 to 20
CN(C)C[C@H]1CC[C@H]([n+]2cc([N-]C(=O)Nc3cc(NC(=O)Cc4ccc(C(=O)O)cc4)cc(C(F)(F)F)c3)on2)CC1 [Example 156, ((3-(2-(4-Carboxyphenyl)acetamido)-5-(trifluoromethyl)phenyl)carbamoyl)(3-((1R,4R)-4-((dimethylamino)methyl)cyclohexyl)-1,2,3-oxadiazol-3-ium-5-yl)amide] | 1 to 20 |  |  | 1 to 20
CN(C)C[C@H]1CC[C@H]([n+]2cc([N-]C(=O)Nc3cc(NC(=O)CCc4cn(C)c5ccccc45)cc(C(F)(F)F)c3)on2)CC1 [Example 157, (3-((1R,4R)-4-((Dimethylamino)methyl)-cyclohexyl)-1,2,3-oxadiazol-3-ium-5-yl)((3-(3-(1-methyl-1H-indol-3-yl)propanamido)-5-(trifluoromethyl)phenyl)carbamoyl)amide] | < 0.1 |  |  | 1 to 20
CN(C)CC1CCC([n+]2cc([N-]C(=O)Nc3cc(NC(=O)CCc4cnccn4)cc(C(F)(F)F)c3)on2)CC1 [Example 158, (3-((1R,4R)-4-((Dimethylamino)methyl)-cyclohexyl)-1,2,3-oxadiazol-3-ium-5-yl)((3-(3-(pyrazin-2-yl)propanamido)-5-(trifluoromethyl-)phenyl)carbamoyl)amide] | 1 to 20 |  |  | > 20
CN(C)CC1CCC([n+]2cc([N-]C(=O)Nc3cc(NC(=O)Cc4ccccc4C(=O)O)cc(C(F)(F)F)c3)on2)CC1 [Example 159, ((3-(2-(2-Carboxyphenyl)acetamido)-5-(trifluoromethyl)phenyl)carbamoyl)(3-((1R,4R)-4-((dimethylamino)methyl)cyclohexyl)-1,2,3-oxadiazol-3-ium-5-yl)amide] | < 0.1 |  |  | 1 to 20
CN(C)C[C@H]1CC[C@H]([n+]2cc([N-]C(=O)Nc3cc(NC(=O)C(F)(F)CN4CCCC4)cc(C(F)(F)F)c3)on2)CC1 [Example 160, ((3-(2,2-Difluoro-3-(pyrrolidin-1-yl)propanamido)-5-(trifluoromethyl)phenyl)-carbamoyl)(3-((1R,4R)-4-((dimethylamino)-methyl)cyclohexyl)-1,2,3-oxadiazol-3-ium-5-yl)amide] | 1 to 20 |  | > 20 | 
CN(C)C[C@H]1CC[C@H]([n+]2cc([N-]C(=O)Nc3cc(NC(=O)Cc4cn(C)c5ccccc45)cc(C(F)(F)F)c3)on2)CC1 [Example 161, (3-((1R,4R)-4-((dimethylamino)methyl)-cyclohexyl)-1,2,3-oxadiazol-3-ium-5-yl)((3-(2-(1-methyl-1H-indol-3-yl)acetamido)-5-(trifluoromethyl)phenyl)carbamoyl)amide] | 0.1 to 1 |  | 1 to 20 | 
